Data set [1] relates to Common Cutworm (Spodoptera Litura). Briefly: Insecticidal effect on common cutworm (Test Example 2). Format: in vivo. The following applies: 50 ppm; cabbage leaf immersed about 30 seconds; second-instar larvae; 25° C.; eight days after the inoculation. From the text: Insecticidal Effect on Common Cutworm (Spodoptera Litura)
A piece of cabbage leaf (cultivar; Shikidori) was immersed for about 30 seconds in a liquid chemical prepared by diluting a preparation containing each compound listed in Table 1, 2 or 3 as an active ingredient to adjust the concentration to 50 ppm. After air-dryness, it was placed in a plastic Petri dish with a diameter of 9 cm and inoculated with second-instar larvae of common cutworm, after which the dish was closed and then allowed to stand in a room thermostatted at 25° C. Eight days after the inoculation, the dead and alive were counted. The mortality was calculated according to the following equation and the insecticidal effect was judged according to the criterion shown in Test Example 1. The test was carried out with triplicate groups of 10 insects. [formula]

The subject of data set [2] is Diamond Back Moth (Plutella xylostella). Briefly: Insecticidal effect on diamond back moth (Test Example 1). Format: in vivo. The following applies: 50 ppm; Chinese cabbage seedling with deposited eggs immersed about 30 seconds; 25° C.; six days after the immersion. Summed up: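 Mortality was scored six days after treatment by counting hatched insects, in three groups of 10. Treatment meant immersing egg-bearing cabbage seedlings (two days post-oviposition) for about 30 seconds in 50 ppm compound preparation, then drying and holding at 25° C.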

Results on 16 molecules are retold here after US6603044B1, “Phthalamide derivatives, or salt thereof agrohorticultural insecticide, and method for using the same” (Nihon Nohyaku Co., Ltd., priority 1998, dated 2003).

For `Cc1cc(C(F)(F)C(F)(F)F)ccc1NC(=O)c1cccc(I)c1C(=O)N1CCSC1` [3-1], the “Test Example 2 insecticidal effect (mortality)” value in data set [1] was “A (100)”. In addition, the “Test Example 1 insecticidal effect (mortality)” value in data set [2] is “A (100)”.
With `CSCC(C)NC(=O)c1c(C(=O)Nc2ccc(C(F)(C(F)(F)F)C(F)(F)F)cc2C)cccc1S(C)(=O)=O` (centres unmarked) [Compound No. 191, N^1-(4-Heptafluoroisopropyl-2-methylphenyl)-N^2-(1-methyl-2-methylthioethyl)-3-methylsulfonylphthalamide], in data set [1], the “Test Example 2 insecticidal effect (mortality)” value is on record as “A (100)”. The “Test Example 1 insecticidal effect (mortality)” value in data set [2] is “A (100)”.
For the molecule `Cc1cc(OC(F)(F)F)ccc1NC(=O)c1cccc(I)c1C(=O)NC(C)CSC(C)C` (centres unmarked) [compound 5], the “Test Example 2 insecticidal effect (mortality)” value in data set [1] is recorded as “A (100)”. For the same molecule, in data set [2], the “Test Example 1 insecticidal effect (mortality)” value was “A (100)”.
Take `Cc1cc(OC(F)(F)F)ccc1NC(=O)c1cccc(I)c1C(=O)NC(C)CSc1ccccn1` (centres unmarked) [compound 74]: the “Test Example 2 insecticidal effect (mortality)” value in data set [1] is “D (79-50)”. Moreover, the “Test Example 1 insecticidal effect (mortality)” value in data set [2] is recorded as “A (100)”.
The like results for `Cc1cc(OC(F)(F)F)ccc1NC(=O)c1cccc(Br)c1C(=O)NC(C)C[S+](C)[O-]` (centres unmarked) [compound 87] were, in that order, “C (89-80)” and “A (100)”.
Turning to `Cc1cc(OC(F)(F)F)ccc1NC(=O)c1cccc(Br)c1C(=O)NC(C)CS(C)(=O)=O` (centres unmarked) [compound 88], the “Test Example 2 insecticidal effect (mortality)” value in data set [1] is “C (89-80)”. Also, the “Test Example 1 insecticidal effect (mortality)” value in data set [2] is recorded as “A (100)”.
The like results for `CC(CS(C)(=O)=O)NC(=O)c1c(I)cccc1C(=O)Nc1cc2c(cc1Cl)OC(F)C(F)(F)O2` (centres unmarked) [compound 102] were, in that order, “A (100)” and “A (100)”.
The corresponding values for `CSCC(C)NC(=O)c1cc(I)ccc1C(=O)Nc1ccc(C(F)(F)C(F)(F)F)cc1C` (centres unmarked) [compound 108] are “A (100)” and “A (100)”.
The like results for `CSCC(C)NC(=O)c1cccc(Cl)c1C(=O)Nc1ccc(C(F)(F)C(F)(F)F)cc1C` (centres unmarked) [compound 115] were, in that order, “A (100)” and “A (100)”.
Regarding `Cc1cc(C(F)(F)C(F)(F)F)ccc1NC(=O)c1cccc(I)c1C(=O)NC(C)CCC[S+](C)[O-]` (centres unmarked) [compound 133], the “Test Example 2 insecticidal effect (mortality)” value in data set [1] is “A (100)”. The “Test Example 1 insecticidal effect (mortality)” value in data set [2] is “A (100)”.
With `Cc1cc(OC(F)(F)F)ccc1NC(=O)c1cccc(I)c1C(=O)NC(C)CS(=O)(=O)C(C)(C)C` (centres unmarked) [compound 139], the “Test Example 2 insecticidal effect (mortality)” value in data set [1] is “A (100)”. The “Test Example 1 insecticidal effect (mortality)” value in data set [2] was “A (100)”.
For the molecule `Cc1cc(OC(F)(F)F)ccc1NC(=O)c1cccc(I)c1C(=O)NC(C)(C)C[S+](C)[O-]` (centres unmarked) [compound 141], the “Test Example 2 insecticidal effect (mortality)” value in data set [1] is “A (100)”. For the same molecule, the “Test Example 1 insecticidal effect (mortality)” value in data set [2] is “A (100)”.
In the case of `Cc1cc(OC(F)(F)F)ccc1NC(=O)c1cccc(Cl)c1C(=O)NC(C)C[S+](C)[O-]` (centres unmarked) [compound 143], the “Test Example 2 insecticidal effect (mortality)” value in data set [1] is “D (79-50)”. Further, the “Test Example 1 insecticidal effect (mortality)” value in data set [2] is recorded as “A (100)”.
The like results for `Cc1cc(C(F)(F)C(F)(F)F)ccc1NC(=O)c1cccc(Cl)c1C(=O)NC(C)C[S+](C)[O-]` (centres unmarked) [compound 144] were, in that order, “A (100)” and “A (100)”.
The like results for `CSCC(C)NC(=O)c1c(C(=O)Nc2ccc(C(F)(F)C(F)(F)F)cc2C)ccc(F)c1Cl` (centres unmarked) [compound 148] were, in that order, “C (89-80)” and “A (100)”.
The like results for `CSCC(C)NC(=O)c1c(C(=O)Nc2ccc(C(F)(C(F)(F)F)C(F)(F)F)cc2C)ccc(F)c1Cl` (centres unmarked) [compound 149] were, in that order, “A (100)” and “A (100)”.
